The results in this text go back to patent publication US7776844B2, “N-(phosphonoalkyl)-amino acids, derivatives thereof and compositions and methods of use” (priority 2006, dated 2010).

Read-outs that look alike come from different tables or passages of the source.

The subject of one experiment is itchy eczema. Kind of experiment: Topical relief of itch in itchy eczema, judged by subject. Type of experiment: in vivo, human. Particulars: 7% cream. Here is the method:
(§1) The present invention will now be described in more detail with reference to the following non-limiting examples. In the initial tests for comparative studies, a control vehicle was always included. It was discovered that all the vehicle controls gave the same results as that of the untreated skin sites; no detectable effects of the controls have been found as judged by clinical evaluation.
(§2) For subjective disorders such as pain, itch or the like, the therapeutic effects were evaluated or judged by the subjects or patients; for example, if the pain or itch had disappeared within hours or days. For other detectable symptoms or syndromes, the therapeutic effects or improvements were evaluated or judged by medical professionals.
A subject, having itchy eczema on their right thigh, topically applied the above 8% N-(phosphonomethyl)-L-proline ethyl ester cream. […] Therapeutic evaluation was judged to be 100% effective in contrast to the untreated or vehicle control for immediate relief of itch.
A subject, having itchy eczema on their left leg, topically applied 7% N-(phosphonomethyl)-creatine cream prepared according to Example 17. […] Therapeutic evaluation was judged to be 100% effective in contrast to the untreated or vehicle control for immediate relief of itch.
A subject, having itchy eczema on their left thigh, topically applied the above 10% N-(phosphonomethyl)-glutamine. […] Therapeutic evaluation was judged to be 100% effective in contrast to the untreated or vehicle control for immediate relief of itch.

For the next experiment, the system named is hyperpigmented dark skin. Description: Topical skin lightening of hyperpigmented dark skin, clinical evaluation. The experiment is classed as in vivo, human. Particulars: 5% solution once every other day with occlusion. Here is the method:
as §1, §2
A subject who had hyperpigmented dark skin, topically applied 5% N-(phosphonomethyl)-DL-asparagine cream prepared according to Example 7 to an involved skin site twice daily for four weeks. […] The treated site was 25% lighter in skin color in contrast to the untreated or vehicle control as judged by clinical evaluation. After four weeks of topical application, the treated site had substantial reduction in skin pigmentation. The treated site was 50% lighter in contrast to the untreated or vehicle control in skin color as judged by clinical evaluation.
A subject who had hyperpigmented dark skin, topically applied the above 5% N-(phosphonomethyl)-DL-asparagine solution to an involved skin site once every other day with occlusion for ten days. […] The treated site was 25% lighter in skin color as judged by clinical evaluation. After ten days of topical application, the treated site had substantial reduction in skin pigmentation. The treated site was 50% lighter in skin color in contrast to the untreated or vehicle control as judged by clinical evaluation.
A subject who had hyperpigmented dark skin, topically applied the above 5% N-(phosphonomethyl)-creatine solution to an involved skin site once every other day with occlusion for two weeks. […] The treated site was 25% lighter in skin color in contrast to the untreated or vehicle control as judged by clinical evaluation. After two weeks of topical application, the treated site had very substantial reduction in skin pigmentation. The treated site was 75% lighter in skin color in contrast to the untreated or vehicle control as judged by clinical evaluation.
A subject who had hyperpigmented dark skin, topically applied the above 5% N-(phosphonomethyl)-glycinamide solution to an involved skin site once every other day with occlusion for two weeks. […] The treated site was 25% lighter in skin color in contrast to the untreated or vehicle control as judged by clinical evaluation. After two weeks of topical application, the treated site had substantial reduction in skin pigmentation. The treated site was 50% lighter in skin color in contrast to the untreated or vehicle control as judged by clinical evaluation.
A subject who had hyperpigmented dark skin, topically applied the above 5% N-(phosphonomethyl)-L-glutamine solution to an involved skin site once every other day with occlusion for two weeks. After two weeks of topical application, the treated site had substantial reduction in skin pigmentation. The treated site had 50% lighter in skin color in contrast to the untreated or vehicle control as judged by clinical evaluation.

The subject of another experiment is chronic plaque psoriasis. Description: Topical treatment of chronic plaque psoriasis lesion, clinical evaluation. The experiment is classed as in vivo. Conditions: Homo sapiens, 336 h, read-out: improvement in contrast to untreated or vehicle control, clinical evaluation. Here is the method: as §1, §2
A subject had chronic plaque psoriasis with erythema, moderately thick and silvery scales. The subject topically applied twice daily the above white cream containing 5% N-(phosphonomethyl)-glycine ethyl ester to one psoriatic lesion for two weeks. At the end of two weeks, the erythema and silvery scales improved substantially, and the treated skin had 50% improvement in contrast to the untreated or vehicle control as judged by clinical evaluation.
A subject had chronic plaque psoriasis with erythema, moderately thick and silvery scales. The subject topically applied twice daily the above white cream containing 10% N-(phosphonomethyl)-L-proline to one psoriatic lesion for two weeks. At the end of two weeks, the erythema and silvery scales improved very substantially, and the treated skin had 75% improvement in contrast to the untreated or vehicle control as judged by clinical evaluation.
A subject had chronic plaque psoriasis with erythema, moderately thick and silvery scales. The subject topically applied twice daily the above white cream containing 5% N-(phosphonomethyl)-glycine propyl ester to one psoriatic lesion for two weeks. At the end of two weeks, the erythema and silvery scales improved very substantially, and the treated skin had 75% improvement in contrast to the untreated or vehicle control as judged by clinical evaluation.
A subject had chronic plaque psoriasis with erythema, moderately thick and silvery scales. The subject topically applied twice daily the above white cream containing 5% N-(phosphonomethyl)-glycine isopropyl ester to one psoriatic lesion for a week. At the end of one week, the erythema and silvery scales improved substantially, and the treated skin had 50% improvement in contrast to the untreated or vehicle control as judged by clinical evaluation.
A subject had chronic plaque psoriasis with erythema, moderately thick and silvery scales. The subject topically applied twice daily the above white cream containing 8% N-(phosphonomethyl)-glycinamide to one psoriatic lesion for three weeks. At the end of three weeks, the erythema and silvery scales disappeared almost completely, and the treated skin had 90% improvement in contrast to the untreated or vehicle control as judged by clinical evaluation.
A subject had chronic plaque psoriasis with erythema, moderately thick and silvery scales. The subject topically applied twice daily the above white cream containing 5% N-(phosphonomethyl)-L-tyrosine ethyl ester to one psoriatic lesion for two weeks. At the end of two weeks, the erythema and silvery scales improved noticeably and the treated skin had 25% improvement in contrast to the untreated or vehicle control as judged by clinical evaluation.
A subject had chronic plaque psoriasis with erythema, moderately thick and silvery scales. The subject topically applied twice daily the above white cream containing 10% N-(phosphonomethyl)-D-4-hydroxyphenylglycine to one psoriatic lesion for two weeks. […]

For experiment [1], the system named is X-linked ichthyosis with severe dry skin. Description: Topical treatment of X-linked ichthyosis / severe dry skin, clinical evaluation. Particulars: Homo sapiens, read-out: improvement in contrast to untreated or vehicle control, clinical evaluation. The experiment is classed as in vivo.
Description: For example, human subjects having severe dry skin or ichthyosis, topically applied 1%-5% N-(phosphonomethyl)-glycine creams to lesions for 2 to 3 weeks. After 2 to 3 weeks of topical application, the thick and scaly skin disappeared and the skin became smooth and normal in appearance. Clinical evaluation was judged to be 90% to 100% improvement compared to the untreated condition or when using a vehicle control.
as §1, §2
N-(phosphonomethyl)-glycine (5 g) was suspended in water (30 ml) and propylene glycol (10 ml), and concentrated ammonium hydroxide (2 ml) was added with stirring. The suspension became a clear solution, and was mixed with hydrophilic ointment (oil-in-water emulsion, 53 g). The white cream thus formulated had pH 3.8 and contained 5% N-(phosphonomethyl)-glycine. A subject who had X-linked ichthyosis with severe dry skin, having thick and rough skin with adherent scales, topically applied the above 5% N-(phosphonomethyl)-glycine cream to an involved skin site twice daily for two weeks. After one week of topical application, the adherent scales disappeared, and the skin became smooth and had 50% improvement in contrast to the untreated or vehicle control as judged by clinical evaluation. After two weeks of topical application, the treated skin became normal in appearance, and had 100% improvement in contrast to the untreated or vehicle control as judged by clinical evaluation.
A subject who had X-linked ichthyosis with severe dry skin, having thick and rough skin with adherent scales, topically applied the above 5% N-(phosphonomethyl)imino-diacetic acid cream to an involved skin site twice daily for two weeks. After one week of topical application, most adherent scales disappeared and the skin had 50% improvement in contrast to the untreated or vehicle control as judged by clinical evaluation. After two weeks of topical application, the scales disappeared completely and the treated skin became smooth, and had 90% improvement in contrast to the untreated or vehicle control as judged by clinical evaluation.
A subject who had X-linked ichthyosis with severe dry skin, having thick and rough skin with adherent scales, topically applied the above 5% N-(phosphonomethyl)-L-tyrosine cream to an involved skin site twice daily for 12 days. After 12 days of topical application, most adherent scales disappeared and the skin became smooth, and had 75% improvement in contrast to the untreated or vehicle control as judged by clinical evaluation.
A subject who had X-linked ichthyosis having thick and rough skin with adherent scales, topically applied the 5% N-(phosphonomethyl)-DL-asparagine cream to an involved skin site twice daily for three weeks. After one week of topical application, most adherent scales disappeared and the treated site appeared smooth. The skin had 75% improvement in contrast to the untreated or vehicle control as judged by clinical evaluation. After three weeks of topical application, the scales disappeared completely and the treated site felt smooth and normal in appearance. The skin had 100% improvement in contrast to the untreated or vehicle control as judged by clinical evaluation. […]

As to `CN(CC(=O)O)C(=N)NCP(=O)(O)O` [N-(phosphonomethyl)-creatine], in the experiment with itchy eczema, the “time the treated skin did not itch after application” value was 8 h. Besides, the “time until itch disappeared after topical application” value in the experiment with itchy eczema is “within a few minutes”. Besides, in the experiment on itchy eczema (single topical application), the “therapeutic evaluation, effective for immediate relief of itch” value turned out to be 100%. Also, the “treated site lighter in skin color, clinical evaluation” value is given as 25% with hyperpigmented dark skin (after seven days) and 75% with hyperpigmented dark skin (after two weeks). Moreover, the inhibition in vivo at 5 % in the experiment with chronic plaque psoriasis amounted to 50%; in experiment [1] (240 h), 50%; in experiment [1] (336 h) it was 100%.
